The results in this text go back to patent US11370795B2, “Process for the synthesis of 6-[(3S,4S)-4-methyl-1-(pyrimidin-2-ylmethyl)pyrrolidin-3-yl]-3-tetrahydropyran-4-yl-7H-imidazo[1,5-a]pyrazin-8-one” (Imara Inc., priority 2017, dated 2022).

Each structure is given as a SMILES string.

Data set [1] is described as follows: Blood Brain Barrier penetration (plasma and brain concentration). The data set is classed as in vivo.
A short description of data set [2]: Stability study of drug substance in sealed pouches. As to conditions: ambient temperature and 40° C.-45° C. (no humidity control), 3-month period, polyethylene pouches in aluminum pouch. Format: physicochemical. How it is done: A stability study has been completed on Compound P3.1. Samples of Compound P3.1 were aliquoted into double-walled polyethylene pouches, which were tied off and then heat-sealed in an aluminum pouch. Samples were stored at ambient temperature and at 40° C.-45° C. (no humidity control) with testing performed over a 3-month period.

In the case of `O=c1[nH]c(CN2CC(Oc3cccnc3)C2)cn2c(C3CCOCC3)ncc12` [Compound (P2)], in data set [1] (brain, 120 min), the “Brain concentration after 120 minutes” value is reported as “detection limit”.

With `C[C@@H]1CN(Cc2ncccn2)C[C@H]1c1cn2c(C3CCOCC3)ncc2c(=O)[nH]1` [Compound P3.1, 6-[(3S,4S)-4-methyl-1-(pyrimidin-2-ylmethyl)pyrrolidin-3-yl]-3-tetrahydropyran-4-yl-7H-imidazo[1,5-a]pyrazin-8-one], the Kp at 0.5 h in data set [1] (brain/plasma, 30 min, read-out: Brain/Plasma ratio after 30 minutes) came to 0.04. For the same compound, the Kp at 2 h in data set [1] (brain/plasma, 120 min, read-out: Brain/Plasma ratio after 120 minutes) came out at 0.03. The “Changes to appearance or purity of the material” value in data set [2] is recorded as “no changes to appearance or purity”.
